For twelve compounds, Ki results are on record in article PMC8853707, “Synthesis and enzyme-based evaluation of analogues L-tyrosine thiol carboxylic acid inhibitor of metallo-β-lactamase IMP-1” (Journal of Enzyme Inhibition and Medicinal Chemistry, 2019).

T1 sequence (P52699 22-246 limits assumed): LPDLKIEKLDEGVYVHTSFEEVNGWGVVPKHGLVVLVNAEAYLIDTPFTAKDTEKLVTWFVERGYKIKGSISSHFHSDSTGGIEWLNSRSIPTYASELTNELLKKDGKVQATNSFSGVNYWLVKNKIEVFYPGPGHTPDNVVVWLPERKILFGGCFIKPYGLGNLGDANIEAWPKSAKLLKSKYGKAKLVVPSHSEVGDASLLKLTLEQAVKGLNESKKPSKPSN

The first assay concerns the target T1, IMP-1 (Serratia marcescens, UniProt P52699). The assay can be described thus: Kinetic inhibition assay of IMP-1 (hydrolysis of benzyl penicillin followed at 235 nm), Kic. The format is biochemical.
Conditions: not given
The text has this: The IMP-1 enzyme, lacking the first 21 signal peptide amino acid residues, was expressed and purified using the protocol of Vella et al.[45–46] The reported methods for monitoring of MBLs activities are based on the consequences of the hydrolysis of β-lactam ring of substrates. The MBL-catalysed reaction is usually monitored by following the changing absorbance at the wavelength where the difference in the molar absorptivity, ΔɛM, is maximal or near the maximum value. There are a few β-lactam substrates which can be used for in vitro assays of MBLs inhibitors. CENTA,[47] a type of cephalosporin, and Penicillin G (benzyl penicillin)[48] are well-known substrates due to commercial availability, inexpensive prices and comfort of their syntheses. For this study, Penicillin G was used as CENTA was not compatible with the inhibitor type as reported by Arjomandi et al.[1] The monitoring of hydrolysis of benzyl penicillin by the synthesized compounds was carried out in UV plate at wavelength 235 nm as no chromosphere is released (Figure 7). The concentration of benzyl penicillin is reduced upon hydrolysis by IMP-1 causing a decrease in the absorption at 235 nm over the time, thereby allowing a way to monitor the reaction. Inhibitors of metallo-β-lactamase decrease the rate of hydrolysis of benzyl penicillin, thus, providing a way of measuring the activities of inhibitors against MBLs.
Benzyl penicillin solutions were prepared fresh at the time of assay as their activities will change and stop after 24 h even with keeping in the fridge.[1] In the first step, the inhibitory activities (IC50 values) of the inhibitors 2a–k were measured by a screening assay which evaluated the residual activity of the enzyme. […] Further kinetic analyses then allowed the determination of Kic values of these compounds based on the procedure reported by Arjomandi et al.[1] Inhibition assays for IMP-1 were performed in 96 well 400 µL UV multi-titre plates using a UV multi-plate spectrophotometer. The hydrolysis rate of benzyl penicillin (penicillin G sodium salt) was measured at λ = 235 nm.[49] The initial screening assay (IC50 values) was performed in duplicate, with benzyl penicillin as the substrate and HEPESX (50 mM HEPES, 0.1 M NaCl, […], pH 7.0) as the buffer at 25 °C. The final concentrations of enzyme and benzyl penicillin were 10 nM and 500 µM, respectively. Bovine serum albumin (a final concentration of 20 µg/mL) was added to the enzyme for stability. For each well, 196 µL substrate and 4 µL inhibitor were added followed by the addition of 200 µL of enzyme. The rate of the hydrolysis of substrate was recorded for 5 min. To measure Kic value, four solutions with different concentrations for each molecule were prepared and then were assayed based on the aforementioned procedure while the concentrations of substrate in wells were 200, 400, 600, 800 and 1000 µM. The raw kinetic data were analysed by non-linear regression using the Win Curve Fit program (Kevin Raner Software) and the Kic value was calculated for each molecule.[1] The Kic values of molecules 2a–k are in the range of 1.04–4.77 µM which was unexpected based on the computational modelling results. Although the introduced compounds are still potent enzyme-based inhibitors, they are nearly at least ten times less as potent as the lead inhibitor is. Due to the less inhibition activities of the synthesized molecules in compare to the reference compound, their cell-based assays have not carried out.
`Cc1ccccc1COc1ccc(C[C@H](NC(=O)CS)C(=O)O)cc1` [Compound 2a, (S)-2-(2-Mercaptoacetamido)-3-(4-((2-methylbenzyl)oxy)phenyl)propanoic acid]: the Ki was 1040 ± 280 nM. On the same count and under the same terms, for `Cc1cccc(COc2ccc(C[C@H](NC(=O)CS)C(=O)O)cc2)c1` [Compound 2b, (S)-2-(2-Mercaptoacetamido)-3-(4-((3-methylbenzyl)oxy)phenyl)propanoic acid] the value was 1150 ± 490 nM. `Cc1ccc(COc2ccc(C[C@H](NC(=O)CS)C(=O)O)cc2)cc1` [Compound 2c, (S)-2-(2-Mercaptoacetamido)-3-(4-((4-methylbenzyl)oxy)phenyl)propanoic acid]: the Ki amounted to 1070 ± 210 nM. The same measure, in the same setting: for `O=C(CS)N[C@@H](Cc1ccc(OCc2ccccc2Cl)cc1)C(=O)O` [Compound 2d, (S)-3-(4-((2-Chlorobenzyl)oxy)phenyl)-2-(2-mercaptoacetamido)propanoic acid] the value was 1810 ± 900 nM; for `O=C(CS)N[C@@H](Cc1ccc(OCc2cccc(Cl)c2)cc1)C(=O)O` [Compound 2e, (S)-3-(4-((3-chlorobenzyl)oxy)phenyl)-2–(2-mercaptoacetamido)propanoic acid], 4770 ± 2810 nM; for `O=C(CS)N[C@@H](Cc1ccc(OCc2ccc(Cl)cc2)cc1)C(=O)O` [Compound 2f, (S)-3-(4-((4-Chlorobenzyl)oxy)phenyl)-2-(2-mercaptoacetamido)propanoic acid], 3200 ± 590 nM. With `O=C(CS)N[C@@H](Cc1ccc(OCc2ccccc2[N+](=O)[O-])cc1)C(=O)O` [Compound 2g, (S)-2-(2-Mercaptoacetamido)-3-(4-((2-nitrobenzyl)oxy)phenyl)propanoic acid], the Ki turned out to be 1650 ± 340 nM. In turn, `O=C(CS)N[C@@H](Cc1ccc(OCc2cccc([N+](=O)[O-])c2)cc1)C(=O)O` [Compound 2h, (S)-2-(2-Mercaptoacetamido)-3-(4-((3-nitrobenzyl)oxy)phenyl)propanoic acid] came in with a Ki of 2860 ± 1230 nM. Same read-out and setting: for `O=C(CS)N[C@@H](Cc1ccc(OCc2ccc([N+](=O)[O-])cc2)cc1)C(=O)O` [Compound 2i, (S)-2-(2-Mercaptoacetamido)-3-(4-((4-nitrobenzyl)oxy)phenyl)propanoic acid] the value was 3200 ± 620 nM; for `O=C(CS)N[C@@H](Cc1ccc(OCc2cccc(Br)c2)cc1)C(=O)O` [Compound 2j, (S)-3-(4-((3-Bromobenzyl)oxy)phenyl)-2-(2-mercaptoacetamido)propanoic acid], 3140 ± 710 nM; for `O=C(CS)N[C@@H](Cc1ccc(OCc2ccc(Br)cc2)cc1)C(=O)O` [Compound 2k, (S)-3-(4-((4-Bromobenzyl)oxy)phenyl)-2-(2-mercaptoacetamido)propanoic acid], 3300 ± 900 nM.

Another assay addresses T1, IMP-1.
Experiment: not given
The note with it: read-out: Kic; against IMP-1; reference inhibitor; cited from earlier work.
For the compound `O=C(CS)N[C@@H](Cc1ccc(OCc2ccccc2)cc1)C(=O)O` [Compound 1, L-benzyl tyrosine thiol carboxylic acid], the Ki was 86 ± 24 nM.
